Reference: patent US7884136B2, “Modified-release formulations of a bupropion salt” (Biovail Laboratories International S.R.L., priority 2005, dated 2011)
Like-named read-outs stand apart in the source and are kept apart here.

Tests used:
[1] = Stability of bupropion HBr polymorphic forms I, II and III by PXRD under ICH conditions; assay type: physicochemical; settings: for Stability of the polymorphic form (words): ICH conditions 40° C., 75% R.H.; for Stability of the polymorphic form (words) / PXRD profile / crystalline form after storage (words): hydrobromide; for PXRD profile / crystalline form after storage (words): ICH conditions 40° C./75% r.h., 1 month
Experimental: It is well known that organic molecules can crystallize into solid forms. Moreover the same organic compound may assume different crystalline arrangements in solid form, depending on the conditions under which the crystal product is formed. This phenomenon is commonly known as polymorphism. […] The crystal forms of the products obtained in this study were determined by powder X-ray diffraction (PXRD). A RIGAKU miniflex instrument (Radiation Cu K∝, generator 30 KV, filter Ni) was used to obtain the PXRD data.
The three polymorphic forms were subjected to stability testing. […] Samples of the polymorphic forms II and III were tested after 1 month under the same accelerated stability conditions.
Samples of bupropion HBr form I were subjected to the conditions for the accelerated stability study as described in Example 10 and the shelf life stability study as described in Example 11.
10 g of bupropion HBr form I were dissolved in a mixture of 170 ml of acetone and 7 ml of water. The mixture was brought to reflux with dissolution of the solid. The solution was then cooled to room temperature. After one night the precipitate formed was filtered and dried at 40° C. under vacuum (30 mmHg) for 12 hours. […] The crystalline form was checked after maintaining the product under these conditions for 1 month.
The mixture was brought to reflux obtaining complete dissolution of the solid. The solution was then cooled to room temperature without stirring and left in these conditions for 18 hours. The resulting crystalline solid was then filtered and dried under vacuum (30 mmHg) at 50° C. for 4 hours. […] The crystalline form was checked after maintaining the product in these conditions for 1 month.

[2] = Recrystallization screen for bupropion hydrobromide polymorphic forms (PXRD); assay type: physicochemical
Experimental: It is well known that organic molecules can crystallize into solid forms. Moreover the same organic compound may assume different crystalline arrangements in solid form, depending on the conditions under which the crystal product is formed. This phenomenon is commonly known as polymorphism. A study was undertaken to explore the polymorphic forms of bupropion hydrobromide. The crystal forms of the products obtained in this study were determined by powder X-ray diffraction (PXRD). A RIGAKU miniflex instrument (Radiation Cu K∝, generator 30 KV, filter Ni) was used to obtain the PXRD data.
Polymorphic form II was obtained by recrystallization of form 1 from solvents or mixtures of solvents such as acetone-water, methanol, dichloromethane, toluene-methanol and dimethylcarbonate-methanol. Polymorphic form III was obtained by recrystallization of polymorphic form I in methanol. Table 80 provides a list of recrystallization conditions and the polymorphic form obtained under each set of conditions.

[3] = pH of 0.5% aqueous solution of bupropion salts; assay type: physicochemical; settings: 0.5% aqueous solution, original API salts
Experimental: (§1) The eight salts were first evaluated by HPLC, KF, pH and DSC for purity, water content, aqueous pH and possible polymorphs.
(§2) The salts were analysed by DSC (at 10° C./min from 30° C. up to 400° C.) and the pH (aq. 0.5%), and the moisture content by KF were also measured. The TGA was performed on the HCl, maleate, tosylate and HBr salts.

[4] = Moisture content of bupropion salts by KF; assay type: physicochemical; settings: original API salts
Experimental: as §1, §2

[5] = Forced degradation stability study of bupropion salts spiked with placebo/excipients, closed vials, 40° C./75% RH, HPLC assay and impurities; settings: for Stability in the forced degradation stability studies, overall: DS and spiked DS; for Content of impurity 3-CBZ, order of salts / Content of impurity 852U77, order of salts / Total imp., order of salts: 32 days
Experimental: The stability of the salts was evaluated based on the formation of the main degradation products (see below) as determined by HPLC analysis and the % potency (or assay) of the API, after specific time periods in the stability chamber. The effect of the addition of solvents, such as water, ethanol and isopropyl alcohol, was also studied.
The samples of each salt and the spiked salts with the bupropion HCl XL were prepared under the conditions mentioned in Table 4. […] The stability of the bupropion salts were evaluated based on the formation of the main degradation product 3-chlorobenzoic acid (3-CBZ) and the intermediate degradation products diketone 827U76 and the ketohydroxyl derivatives (20U78 and 852U77) (Scheme 2).
As mentioned above, the stability samples were prepared in 2 mL vials and used directly for assay and impurity analysis by HPLC without further sample preparations to minimize errors.

[6] = cited from earlier work
[7] = recrystallized product, solvent/cosolvent differ per trial, trial no. in label
[8] = PEG-Fatty Acid Diester Surfactants
[9] = Mono- and Diglyceride Surfactants
[10] = PEG-Fatty Acid Monoester Surfactants
[11] = Lower Alcohol Fatty Acid Ester Surfactants, as reported by the manufacturer
[12] = Sterol and Sterol Derivative Surfactants

## Br.CC(NC(C)(C)C)C(=O)c1cccc(Cl)c1 (stereo not drawn) [Form I, bupropion hydrobromide]
[1]; listed as form I
  Stability of the polymorphic form (words): quite stable
[1]; accelerated (40° C./75% RH) and shelf life conditions, 3 months and 6 months
  PXRD profile after storage: gave the same results

## Br.CC(NC(C)(C)C)C(=O)c1cccc(Cl)c1 (stereo not drawn) [Bupropion Hydrobromide 098A]
[2]; [7]
  K.F. (%): 0.13%

## Br.CC(NC(C)(C)C)C(=O)c1cccc(Cl)c1 (stereo not drawn) [Bupropion Hydrobromide 112]
[2]; [7]
  K.F. (%): 0.18%

## Br.CC(NC(C)(C)C)C(=O)c1cccc(Cl)c1 (stereo not drawn) [Bupropion Hydrobromide 108]
[2]; [7]
  K.F. (%): 0.14%

## CC(NC(C)(C)C)C(=O)c1cccc(Cl)c1.O=C(O)C(O)C(O)C(=O)O (stereo not drawn) [Bupropion tartrate acid]
[3]
  pH (aq. 0.5%), Original (Initial APIs): 3.62
[4]
  KF (moisture content), Original (Initial APIs): 0.18%

## tartrate
[5]; 10 days, 40° C./75% RH, closed vials, with or without excipients
  Stability in the 10 days forced degradation study: not stable
[5]; 40° C./75% RH
  Stability in the forced degradation stability studies, overall: very poor

## Bupropion succinate
[3]
  pH (aq. 0.5%), Original (Initial APIs): 4.82
[4]
  KF (moisture content), Original (Initial APIs): 0.13%

## Br.CC(NC(C)(C)C)C(=O)c1cccc(Cl)c1 (stereo not drawn) [Bupropion Hydrobromide 113]
[2]; [7]
  K.F. (%): 0.39%

## Br.CC(NC(C)(C)C)C(=O)c1cccc(Cl)c1 (stereo not drawn) [Bupropion Hydrobromide 116]
[2]; Form I in rotavapor 100° C. 24 h
  K.F. (%): 0.45%

## oxalate
[5]; 40° C./75% RH
  Stability in the forced degradation stability studies, overall: very poor

## Br.CC(NC(C)(C)C)C(=O)c1cccc(Cl)c1 (stereo not drawn) [Form III, bupropion hydrobromide]
[1]; listed as form III
  Stability of the polymorphic form (words): not as stable as forms I and II
  PXRD profile / crystalline form after storage (words): conversion to form II
[1]; listed as bupropion HBr form III
  PXRD profile / crystalline form after storage (words): the majority of the product changed to form II

## Br.CC(NC(C)(C)C)C(=O)c1cccc(Cl)c1 (stereo not drawn) [Bupropion Hydrobromide 099]
[2]; [7]
  K.F. (%): 0.12%

## Br.CC(NC(C)(C)C)C(=O)c1cccc(Cl)c1 (stereo not drawn) [Bupropion Hydrobromide 122]
[2]; [7]
  K.F. (%): 1.3%

## Br.CC(NC(C)(C)C)C(=O)c1cccc(Cl)c1 (stereo not drawn) [Bupropion Hydrobromide 097]
[2]; [7]
  K.F. (%): 0.06%

## Br.CC(NC(C)(C)C)C(=O)c1cccc(Cl)c1 (stereo not drawn) [Bupropion Hydrobromide 117]
[2]; [7]
  K.F. (%): 0.32%

## Br.CC(NC(C)(C)C)C(=O)c1cccc(Cl)c1 (stereo not drawn) [Bupropion Hydrobromide 098B]
[2]; [7]
  K.F. (%): 0.16%

## Bupropion Fumarate
[3]
  pH (aq. 0.5%), Original (Initial APIs): 3.84
[4]
  KF (moisture content), Original (Initial APIs): 0.09%
[5]; In IPA/EtOH, closed vials
  Content of impurity 3-CBZ, order of salts: maleate > HBr > HCl > Fumarate
  Content of impurity 852U77, order of salts: fumarate > HBr ≈ HCl ≈ maleate ≈ tosylate
  Total imp., order of salts: fumarate > maleate > HBr > HCl > tosylate
[5]; In water, closed vials
  Content of impurity 3-CBZ, order of salts: HCl > HBr ≈ maleate ≈ fumarate
  Content of impurity 852U77, order of salts: fumarate > HBr > maleate > HCl
  Total imp., order of salts: fumarate > HBr > HCl > tosylate > maleate

## CCCCCCCCCCCCCCCCCC(=O)OCC(C)OC(=O)CCCCCCCCCCCCCCCCC (stereo not drawn) [Propylene glycol distearate]
[6]; Propylene Glycol Fatty Acid Esters
  HLB: >6

## Polyglyceryl-10 decaisostearate
[6]; Polyglycerized Fatty Acids
  HLB: <10

## PEG-6 dioleate
[6]; [8]
  HLB: 7.2

## CCCCC/C=C\C/C=C\CCCCCCCC(=O)OCC(O)CO (stereo not drawn) [Glycerol monolinoleate]
[6]; [9]
  HLB: 3-4

## Polyglyceryl-10 tetraoleate
[6]; Polyglycerized Fatty Acids
  HLB: 6.2

## PEG 4-100 monostearate
[6]; [10]
  HLB: >6

## CCCCCCCCCC(=O)OCC(O)CO (stereo not drawn) [Monocaprin]
[6]; [9]
  HLB: <10

## Sorbitan monoisostearate
[6]; Sorbitan Fatty Acid Ester Surfactants, as reported by the manufacturer
  HLB: 4.7

## CCCCCCCC(=O)OCC(O)CO (stereo not drawn) [Monocaprylin]
[6]; [9]
  HLB: <10

## PEG-30 glyceryl oleate
[6]; PEG Glycerol Fatty Acid Esters
  HLB: >10

## CCCCCCCC/C=C\CCCCCCCC(=O)OCC(O)CO (stereo not drawn) [Glyceryl monooleate]
[6]; [9]
  HLB: 3-4

## Polyglyceryl-4 stearate
[6]; Polyglycerized Fatty Acids
  HLB: 5-6

## Br.CC(NC(C)(C)C)C(=O)c1cccc(Cl)c1 (stereo not drawn) [Bupropion Hydrobromide 111]
[2]; [7]
  K.F. (%): 0.32%

## Br.CC(NC(C)(C)C)C(=O)c1cccc(Cl)c1 (stereo not drawn) [Form II, bupropion hydrobromide]
[1]; listed as form II
  Stability of the polymorphic form (words): quite stable
  PXRD profile / crystalline form after storage (words): no change in the PXRD profile
[1]; listed as bupropion HBr form II
  PXRD profile / crystalline form after storage (words): still in form II

## Polyglyceryl-10 decaoleate
[6]; Polyglycerized Fatty Acids
  HLB: 3.5

## Polyglyceryl-6 oleate
[6]; Polyglycerized Fatty Acids
  HLB: 9

## PEG-9 oleate
[6]; [10]
  HLB: >10

## CCCCCCCC/C=C\CCCCCCCC(=O)OCC(COC(=O)CCCCCCC/C=C\CCCCCCCC)(COC(=O)CCCCCCC/C=C\CCCCCCCC)COC(=O)CCCCCCC/C=C\CCCCCCCC [Pentaerythrityl tetraoleate]
[6]; Transesterification Products of Oils and Alcohols
  HLB: <10

## PEG-200 oleate
[6]; [10]
  HLB: >10

## PEG-400 distearate
[6]; [8]
  HLB: >10

## PEG-400 dioleate
[6]; [8]
  HLB: >10

## PEG 400 distearate
[6]; [10]
  HLB: >10

## CCCCC/C=C\C/C=C\CCCCCCCC(=O)OC(C)C [Isopropyl linoleate]
[6]; [11]
  HLB: <10

## CC(NC(C)(C)C)C(=O)c1cccc(Cl)c1.CC(NC(C)(C)C)C(=O)c1cccc(Cl)c1.O=C(O)C(O)C(O)C(=O)O (stereo not drawn) [Bupropion tartrate neutral]
[3]
  pH (aq. 0.5%), Original (Initial APIs): 3.62
[4]
  KF (moisture content), Original (Initial APIs): 0.14%

## PEG-100 oleate
[6]; [10]
  HLB: 18.8

## CCCCCCCC/C=C\CCCCCCCC(=O)OCC [Ethyl oleate]
[6]; [11]
  HLB: <10

## Distearin
[6]; [9]
  HLB: <10

## CCCCCC(=O)OCC(O)CO (stereo not drawn) [Monocaproin (C6)]
[6]; [9]
  HLB: <10

## PEG-24 cholesterol ether
[6]; [12]
  HLB: >10

## PEG-30 cholestanol
[6]; [12]
  HLB: >10

## CCCCCCCCCCCC(=O)OCC(O)CO (stereo not drawn) [Glyceryl monolaurate]
[6]; [9]
  HLB: 6.8

## PEG-30 stearate
[6]; [10]
  HLB: >10

## Polyglyceryl-2 isostearate
[6]; Polyglycerized Fatty Acids
  HLB: 5-7
